# Test results reported in patent publication US9303042B2, “Triazolothienopyrimidine compound inhibitors of urea transporters and methods of using inhibitors” (The Regents of the University of California, priority 2012, dated 2016).
# Experiments:
# UT-B = molecular target: T1, UT-B (Mus musculus, UniProt Q8VHL0); assay: Transepithelial urea transport in MDCK cells stably expressing UT-B; format: cell-based; conditions: UTBinh-14 10 μM
# T1 sequence (Q8VHL0 1-384): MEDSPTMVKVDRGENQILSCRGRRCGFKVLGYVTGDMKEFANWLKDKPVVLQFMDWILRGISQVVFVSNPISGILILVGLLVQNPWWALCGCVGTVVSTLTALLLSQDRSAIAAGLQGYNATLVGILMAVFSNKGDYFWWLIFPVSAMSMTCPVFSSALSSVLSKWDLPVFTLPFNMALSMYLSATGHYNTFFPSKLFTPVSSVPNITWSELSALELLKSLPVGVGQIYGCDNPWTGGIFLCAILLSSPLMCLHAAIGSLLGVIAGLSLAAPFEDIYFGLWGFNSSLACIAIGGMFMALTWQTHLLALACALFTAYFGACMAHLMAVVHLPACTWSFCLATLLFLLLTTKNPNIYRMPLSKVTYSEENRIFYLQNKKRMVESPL
# Procedure: UT-B selectivity and cytotoxicity were studied. Because of sequence similarities between UT-B and UT-A isoforms, UT-A inhibition was measured. Transepithelial urea transport was measured in MDCK cells stably expressing UT-A1, UT-A3, and UT-B. UT-A1 and UT-A3 are cAMP-regulated urea transporters expressed in kidney tubule epithelia (see, e.g., Frohlich et al., Am. J. Physiol. Cell Physiol. 291:C600-606 (2006); Tickle et al., Am. J. Physiol. Regul. Integr. Comp Physiol 0.297: R323-329 (2009); Stewart et al., Am. J. Physiol. Renal Physiol. 292:F1157-63 (2006)). MDCK cells were cultured on collagen-coated porous filters for measurement of urea accumulation in the apical solution following addition of urea to the basolateral solution.
# cDNAs encoding mouse UT-A3 and UT-B were cloned into pcDNA3.1 and used to generate stably transfected MDCK cell lines. MDCK cells stably expressing rat UT-A1 (MDCK-UT-A1) (see, e.g., Frohlich et al., supra) were obtained as described (see, e.g., Levin et al., FASEB J., supra). Cells were cultured in DMEM containing 10% FBS and 0.5 mg/mL G418. […] Urea flux in the basolateral-to-apical direction across unstimulated and forskolin-stimulated cell layers was measured in response to a 15-mM urea gradient. […]
# TMEM16A = molecular target: T2, TMEM16A (Homo sapiens, UniProt Q5XXA6); assay: TMEM16A calcium-activated chloride conductance by short-circuit current; format: cell-based; conditions: 10 μM, ATP-activated
# T2 construct: expressed in transfected cells
# T2 sequence (Q5XXA6 1-986): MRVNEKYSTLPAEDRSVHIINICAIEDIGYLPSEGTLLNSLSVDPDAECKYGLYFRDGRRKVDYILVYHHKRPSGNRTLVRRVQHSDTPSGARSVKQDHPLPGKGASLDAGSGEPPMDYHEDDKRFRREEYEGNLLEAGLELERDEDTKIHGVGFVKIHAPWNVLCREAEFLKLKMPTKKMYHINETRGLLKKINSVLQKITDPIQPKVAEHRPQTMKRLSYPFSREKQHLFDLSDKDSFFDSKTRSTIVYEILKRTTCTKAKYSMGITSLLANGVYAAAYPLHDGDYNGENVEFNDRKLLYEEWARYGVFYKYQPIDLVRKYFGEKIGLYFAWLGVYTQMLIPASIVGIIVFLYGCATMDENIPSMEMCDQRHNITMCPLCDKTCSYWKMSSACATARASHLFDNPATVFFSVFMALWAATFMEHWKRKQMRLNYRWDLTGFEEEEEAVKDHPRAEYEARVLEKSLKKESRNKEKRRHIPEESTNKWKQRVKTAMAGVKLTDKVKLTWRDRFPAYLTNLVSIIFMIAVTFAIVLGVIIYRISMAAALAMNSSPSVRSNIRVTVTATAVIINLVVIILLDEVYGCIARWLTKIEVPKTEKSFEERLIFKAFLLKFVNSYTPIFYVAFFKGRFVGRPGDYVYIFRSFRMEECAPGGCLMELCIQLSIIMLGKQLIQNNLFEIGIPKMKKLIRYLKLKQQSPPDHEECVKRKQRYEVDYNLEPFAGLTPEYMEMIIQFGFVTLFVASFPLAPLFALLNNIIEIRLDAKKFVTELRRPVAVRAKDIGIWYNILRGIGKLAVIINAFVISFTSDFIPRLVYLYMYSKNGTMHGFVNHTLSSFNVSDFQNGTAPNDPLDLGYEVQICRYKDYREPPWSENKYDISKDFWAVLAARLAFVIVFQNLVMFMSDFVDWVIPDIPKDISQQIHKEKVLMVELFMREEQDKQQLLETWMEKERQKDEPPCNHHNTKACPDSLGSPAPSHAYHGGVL
# Procedure: CFTR chloride conductance was measured by short-circuit current analysis in Fisher rat thyroid (FRT) cells stably expressing CFTR, as described (see, e.g., Ma et al., J. Biol. Chem. (2002), supra). CFTR chloride conductance was stimulated by forskolin and inhibited by a thiazolidinone compound that inhibits CFTR (CFTRinh-172). TMEM16A calcium-activated chloride conductance was measured by short-circuit current analysis in FRT cells stably expressing TMEM16A, as described (see, e.g., Namkung et al., J. Biol. Chem. 286:2365-2374, 2011. TMEM16A was stimulated by ATP and inhibited by tannic acid (100 μM). Cytotoxicity was measured in MDCK using the MTT assay [3(4,5-dimethyl-thiazol-2-yl)-2,5-diphenyl tetrazolium bromide] by standard procedures.
structure (smiles),measurement,setting,value
"CCc1ccc(S(=O)(=O)c2nnn3c2nc(NCc2cccs2)c2sccc23)cc1 [UTBinh-14, [3-(4-Ethyl-benzenesulfonyl)-thieno[2,3-e][1,2,3]triazolo[1,5-a]pyrimidin-5-yl]-thiophen-2-ylmethylamine]",inhibition of UT-B facilitated urea transport,UT-B,strongly inhibited
same,inhibition of TMEM16A chloride conductance,TMEM16A,no significant inhibition
